This is an account of results in patent US4745223A, “Mono-tertiary-alkylated toluenediamine and derivatives” (Air Products and Chemicals, Inc., priority 1985, dated 1988).

Series [1] in a line: Pot life test of chain extenders in polyurethane-urea formulation. Particulars: 50° C., log (relative viscosity) = I + A*(time) + B*(time)**2 + C*(time)**3. On the procedure: A series of polyurethane-urea elastomers utilizing various chain extenders was prepared and evaluated in a pot life test system for the purpose of determining the reactivity of the chain extenders in standard urethane formulations relative to one another. The polyurethane-urea elastomers were formulated by reacting a prepolymer of poly(1,4-oxytetramethylene)glycol end-capped with 2,4-toluene diisocyanate, the prepolymer having an NCO content generally from 5-7%, with the test candidate chain extender aromatic diamine and a diol. The nominal stoichiometric equivalent ratio of isocyanate to diamine chain extender to diol for each sample is 2:1:1.
The test system for measuring pot life comprised a heated test chamber for holding 7 grams of test sample at a constant temperature (50° C.) and was equipped with a vertical perforated piston. This piston moves up and down through the test sample in timed relationship. (The temperature rise due to the exothermic reaction is discounted.) The force necessary to move the piston through the polymer sample is measured in arbitrary units, and the relationship of the force is plotted as a function of time. The force-pot life relationship of the urethane system during cure then is correlated to known force-viscosity relationships for the urethane-urea systems.
The coefficients apply to the equation:
log (viscosity)=I+A(time)+B(time)^2 +C(time)^3.
The coefficient of the first power term ("A") is a "quasi" reaction rate constant measuring initial reactivity. Smaller values in the quasi rate constant (A) indicate longer and desirable pot lives. The value T-5000 is the time in which the reaction product has a relative viscosity of 5000 units. Even though the value is an arbitrary value, that value is relevant for use in determining the performance of the test candidate in a RIM process or cast elastomers process. For injection molding of modest size parts, T-5000 may be about 2.5 minutes; whereas, the molding of large or intricate parts may require a T-5000 of greater than 5 minutes, e.g., 10 to 40 minutes for hand casting.

Series [2] relates to Salmonella strain TA1538. Put plainly: Ames mutagenic assay, strain TA1538. The class given is cell-based. Here is the method: (§1) A series of chain extenders was tested in the Ames mutagenic assay using five strains of Salmonella bacteria without (-) and with (+) metabolic activation. Table 6 provides the results of various test compounds including a variety of known aromatic diamine chain extenders against these five strains of Salmonella bacteria. The data are presented as the quantity of test compound in micrograms per test plate that gave positive mutagencity results.
(§2) From Pharmakon Research International, the Ames test data evaluation criteria in Table 5 are clearly defined: "In most tests with the Salmonella/Microsome Assay, results are either clearly positive or clearly negative. A positive result is defined as a reproducible, dose-related increase in the number of histidine-independent colonies. This dose-response relationship occasionally necessitates slight modification of the original doses in a repeat assay. If the historical control is within one standard deviation of the historical mean and the test chemical produces the highest increase equal to or greater than three times the solvent control value, the test chemical is considered positive. A negative result is defined as the absence of a reproducible increase in the number of histidine-independent colonies."
Background: The Ames test uses bacterial strains that need an amino acid and regain growth without it when mutated back.

Series [3] deals with Salmonella strain TA98. Put plainly: Ames mutagenic assay, strain TA98. The class given is cell-based. Particulars: TA98, (+) with metabolic activation. Here is the method: as §1, §2
Series [4] has as its system Salmonella strain TA100. Put plainly: Ames mutagenic assay, strain TA100. It is filed as cell-based. On the procedure: as §1, §2
In series [5] the test system is Salmonella strain TA1537. Put plainly: Ames mutagenic assay, second strain column (printed TA1537), without (-) and with (+) metabolic activation. It is filed as cell-based. Particulars: TA1537 as printed, (+) with metabolic activation. Here is the method: as §1, §2
In series [6] the test system is five strains of Salmonella bacteria. Put plainly: Ames test, overall outcome. Particulars: with and without metabolic activation. It is filed as cell-based. On the procedure: as §1, §2
For series [7], the system named is Salmonella strain TA1537. Put plainly: Ames mutagenic assay, strain (TA1537), without (-) and with (+) metabolic activation. Particulars: first strain column, TA1537 as printed. It is filed as cell-based. Here is the method:
as §1, §2

For `CCc1cc(C)c(N)c(CC)c1N` [35DE24TDA, 3,5-Diethyl-2,4-toluenediamine], the “lineshape coefficient A (quasi reaction rate constant, initial reactivity)” value in series [1] turned out to be 1.350.

Regarding `CCc1cc(CC)c(N)c(C)c1N` [35DE26TDA, 3,5-Diethyl-2,6-toluenediamine], the “lineshape coefficient A (quasi reaction rate constant, initial reactivity)” value in series [1] is 5.572.

On to “3-Cyclopentenyl-2,6-toluenediamine [3Cp26TDA]”, for which, in series [1], the “lineshape coefficient A (quasi reaction rate constant, initial reactivity)” value is reported as “.7173”.

Take `CC(C)(C)c1ccc(N)cc1N` [tBBDA, tertiaryButyl-2,4-benzenediamine]: the results for the “quantity of test compound that gave positive mutagenicity results” value (“quantity” for short) in series [2] and in series [3] were 1200 micrograms per test plate and 1800 micrograms per test plate, respectively.

Consider `Cc1c(N)ccc(C(C)C)c1N` [3iP26TDA, 3-isoPropyl-2,6-toluendiamine], for which the “lineshape coefficient A (quasi reaction rate constant, initial reactivity)” value in series [1] is given as “.5074”.

For the molecule `Cc1cc(C(C)(C)C)c(N)c(C)c1N` [5tB24DAmX, 5-tertiaryButyl-2,4-diaminometaxylene], in series [1], the “lineshape coefficient A (quasi reaction rate constant, initial reactivity)” value was “.8716”.

With `Cc1c(N)cc(C(C)(C)C)cc1N` [4tB26TDA, 4-tertiaryButyl-2,6-toluenediamine], the “lineshape coefficient A (quasi reaction rate constant, initial reactivity)” value in series [1] was 3.867; in series [1] (listed as 4-tertiarybutyl-2,6-toluenediamine) it was 3.87.

Regarding chlorotoluenediamine [Cl-TDA], the “quantity” value in series [4] turned out to be 500 micrograms per test plate; in series [5], 5000 micrograms per test plate; in series [2], 500 micrograms per test plate; in series [3] it was 500 micrograms per test plate; in series [7] ((+) with metabolic activation), 50 micrograms per test plate; in series [7] ((-) without metabolic activation), 500 micrograms per test plate. For the same molecule, in series [6], the Ames test result is “Ames positive”.

Consider `Cc1c(N)ccc(C(C)(C)C)c1N` [3tB26TDA, 3-tert-butyl-2,6-toluenediamine], for which the results for the “lineshape coefficient A (quasi reaction rate constant, initial reactivity)” value in series [1] and in series [1] (listed as Monotertiarybutylated 2,6-TDA) were “.06721” and 0.06721, respectively.

For `Cc1c(N)c(C(C)(C)C)cc(C(C)(C)C)c1N` [35DtB26TDA, 3,5-Ditertiarybutyl-2,6-toluenediamine], the “quantity” value in series [4] is reported as 50 micrograms per test plate; in series [2] it was 50 micrograms per test plate; in series [3] it was 15 micrograms per test plate. In series [6], the Ames test result is listed as “Ames positive”. Also, in series [1], the “lineshape coefficient A (quasi reaction rate constant, initial reactivity)” value is on record as “.1601”.

In the case of `Cc1cc(C(C)C)c(N)cc1N` [5iP24TDA, 5-isoPropyl-2,4-toluenediamine], in series [1], the “lineshape coefficient A (quasi reaction rate constant, initial reactivity)” value came to 3.374.

Turning to `CCC(C)(C)c1ccc(N)c(C)c1N` [3tA26TDA, 3-tertiaryAmyl-2,6-toluenediamine], the “lineshape coefficient A (quasi reaction rate constant, initial reactivity)” value in series [1] was “.08902”.

Consider `Cc1cc(N)c(N)c(C(C)(C)C)c1` [3tB34TDA, 5-tertiaryButyl-3,4-toluenediamine], for which the “lineshape coefficient A (quasi reaction rate constant, initial reactivity)” value in series [1] is recorded as “.2764”.

`Cc1c(N)ccc(C2(C)CCCC2)c1N` [3tMCp26TDA, 3-tertiaryMethylcyclopentyl-2,6-toluenediamine]: the “lineshape coefficient A (quasi reaction rate constant, initial reactivity)” value in series [1] is “.1722”.

As to `Cc1c(N)c(C(C)C)cc(C(C)C)c1N` [35DiP26TDA, 3,5-Diisopropyl-2,6-toluenediamine], the “lineshape coefficient A (quasi reaction rate constant, initial reactivity)” value in series [1] is given as 1.563.

With `Cc1cc(C(C)C)c(N)c(C(C)C)c1N` [35DiP24TDA, 3.5-Diisopropyl-2,4-toluenediamine], in series [1], the “lineshape coefficient A (quasi reaction rate constant, initial reactivity)” value is given as “.7499”.
